Data as given in patent publication US7531318B2, “Screening of agents for activity against ischemic myocardial insults” (priority 2004, dated 2009).

How the values were obtained:
[1] = test system: ILK, Akt (serine 473) in C2C12 myoblasts and embryonic heart explants; assay: ILK localization/expression and Akt phosphorylation by immunocytochemistry and western blot; type: cell-based
Protocol: (§1) Immunocytochemistry on collagen gel explants. Paraformaldehyde-fixed explants were permeabilized for 10 min at room temperature with Permeabilize solution (10 mM PIPES pH 6.8; 50 mM NaCl, 0.5% Triton X-100, 300 mM sucrose, 3 mM MgCl2) and rinsed with PBS twice for 5 min each at room temperature. After a series of blocking and rinsing steps, detection antibodies were used and explants rinsed and incubated with equilibration buffer (Anti-Fade kit) for 10 min at room temperature. Explants were scooped to a glass microscope slide, covered and examined by fluorescein microscopy. TUNEL assay was performed using ApopTag plus fluorescein in situ apoptosis detection kit (Intergen Company S7111) as recommended.
Because recruitment of ILK to the focal adhesion complex is important for its activation, the inventors assayed the effects of thymosin β4 on ILK localization and expression. […] Because thymosin β4 sequesters the pool of G-actin monomers, the inventors asked whether the effects on ILK activation were dependent on the role of thymosin β4 in regulating the balance between polymerized F-actin and monomeric G-actin.

[2] = test system: C57BL/6J mice after ligation of the left anterior descending coronary artery; assay: Myocardial infarction by coronary artery ligation: echocardiography, scar, TUNEL; type: in vivo, mouse
Excerpt: Immunohistochemistry. Embryonic or adult cardiac tissue was embedded in paraffin and sections used for immunohistochemistry. […] Adult hearts were sectioned at ten equivalent levels from the base of the heart to the apex. Serial sections were used for trichrome sections and reaction with muscle actin, c-kit, Sca-1, Abcg2 and BrdU antibodies and for TUNEL assay (Intergen Company S7111).
(§2) Animals and surgical procedures. Myocardial infarction was produced in 58 male C57BL/6J mice at 16 weeks of age (25-30 g) by ligation of the left anterior descending coronary artery as previously described (Garner et al., 2003). All animal protocols were reviewed and approved by the University of Texas Southwestern Medical Center Institutional Animal Care Advisory Committee and were in compliance with the rules governing animal use as published by the NIH. Twenty-nine of the ligated mice received thymosin β4 treatment immediately after ligation and the remaining 29 received PBS injections. Treatment was given intracardiac with thymosin β4 (200 ng in 10 μl collagen) or with 10 μl of collagen; intraperitoneally with thymosin β4 (150 μg in 300 μl PBS) or with 300 μl of PBS; or by both intracardiac and intraperitoneal injections. Intraperitoneal injections were given every 3 days until mice were killed. Doses were based on previous studies of thymosin β4 biodistribution (Mora et al., 1997). Hearts were removed, weighed and fixed for histological sectioning. Additional mice were operated on in a similar fashion for studies 0.5, 1, 3, 6 and 11 days after ligation.
Analysis of cardiac function by echocardiography. Echocardiograms to assess systolic function were performed using M-mode and two-dimensional measurements as described previously (Garner et al., 2003). The measurements represented the average of six selected cardiac cycles from at least two separate scans performed in random-blind fashion with papillary muscles used as a point of reference for consistency in level of scan. End diastole was defined as the maximal left ventricle diastolic dimension and end systole was defined as the peak of posterior wall motion. Single outliers in each group were omitted for statistical analysis. Fractional shortening (FS), a surrogate of systolic function, was calculated from left ventricle dimensions as follows: FS=((EDD−ESD)/EDD)×100%. Ejection fraction (EF) was calculated from two-dimensional images.
Calculation of scar volume. Scar volume was calculated using six sections through the heart of each mouse using Openlab 3.03 software (Improvision) similar to that previously described (Balsam et al., 2004). Percent area of collagen deposition was measured on each section in a blinded fashion and averaged for each mouse.
Statistical analyses. Statistical calculations were performed using a standard t-test of variables with 95% confidence intervals.
Thymosin β4 promotes cell survival after myocardial infarction and improves cardiac function. Because of the effects of thymosin β4 on cardiac cells in vitro, the inventors tested whether thymosin β4 might aid in cardiac repair in vivo after myocardial damage. The inventors created myocardial infarctions in 58 adult mice by coronary artery ligation and treated half with systemic, intracardiac, or systemic plus intracardiac thymosin β4 immediately after ligation and the other half with PBS (FIGS. 4A-E). All 45 mice that survived 2 weeks later were interrogated for cardiac function by random-blind ultrasonography at 2 and 4 weeks after infarction by multiple measurements of cardiac contraction (FIGS. 4A-D).
TUNEL-positive cells that were also myocytes were rare in the thymosin β4 group but abundant in the control hearts. […] Thus, the decreased scar volume and preserved function of thymosin-β4-treated mice were probably due to early preservation of myocardium after infarction through the effects of thymosin β4 on survival of cardiomyocytes.

PINCH = molecular target: T1, PINCH (Mus musculus, UniProt Q99JW4); assay: Phage display, ELISA and co-immunoprecipitation of thymosin β4 interacting proteins: PINCH; type: binding
T1 construct: Myc or Flag (co-immunoprecipitation part only); expressed in transfected cells; host or cells: Cos and 10T1/2 cells (co-IP); T7Select10-3 phage displaying mouse embryonic heart cDNA (phage display / ELISA)
Excerpt: Embryonic T7 phage display cDNA library and phage biopanning. Equal amounts of messenger RNA were isolated and purified from E9.5-E12.5 mouse embryonic hearts by using Straight A's mRNA Isolation System (Novagen). cDNA was synthesized by using T7Select10-3 OrientExpress cDNA Random Primer Cloning System (Novagen). The vector T7Select10-3 was used to display random-primed cDNA at the C terminus of 5-15 phage 10B coat protein molecules. 10^9 plaque-forming units of the T7 phage embryonic heart library (100× of the complexity) in 500 μl of PBST was applied to a column of Affi-gel bound to thymosin β4 to achieve low-stringency biopanning to identify thymosin β4 interacting partners. See Supplementary Methods for details of phage packaging, phage biopanning and ELISA confirmation.
(§3) Co-immunoprecipitation. Cos and 10T1/2 cells were transfected with thymosin β4, PINCH and/or ILK and lysates precipitated with antibodies to each as previously described (Garg et al., 2003). Western blots were performed using anti-ILK polyclonal antibody (Santa Cruz), anti-thymosin β4 polyclonal antibody (Yu et al., 1993) (gift of H. Yin) and anti-Myc or anti-Flag antibody against tagged versions of PINCH.
Thymosin β4 activates ILK and Akt. […]

[3] = test system: ILK, phosphorylated Akt-S 473; assay: Western blot on heart lysates after coronary ligation; type: in vivo, mouse
Excerpt: as §2
Similar to cultured cells, the level of ILK protein was increased in heart lysates of mice treated with thymosin β4 after coronary ligation compared with PBS-treated mice (FIG. 5N).

[4] = test system: rat neonatal cardiomyocytes; assay: Primary neonatal cardiomyocyte culture on laminin-coated glass: migration, survival, beating; type: cell-based
Excerpt: To test the response of postnatal cardiomyocytes, the inventors cultured primary rat neonatal cardiomyocytes on laminin-coated glass and treated the cells with phosphate-buffered saline (PBS) or thymosin β4.
Primary culture of neonatal cardiomyocytes typically survives for approximately 1 to 2 weeks, with some cells beating for up to 2 weeks when grown on laminin-coated slides in our laboratory. […] In addition, the rate of beating was consistently faster in thymosin-β4-treated neonatal cardiomyocytes (95 versus 50 beats per minute, P<0.02), indicating either a change in cell-cell communication or cell metabolism (FIG. 2M; see also Supplementary FIGS. 1A-I and 2A-M).

[5] = test system: E11.5 cardiac outflow tract explants (myocardial cells); assay: Collagen gel migration assay, embryonic heart explant: myocardial cell migration and beating; type: cell-based, mouse
Protocol: Collagen gel migration assay. Outflow tract was dissected from E11.5 wild-type mouse embryos and placed on collagen matrices as previously described (Runyan and Markwald, 1983. After 10 h of attachment explants were incubated in 30 ng per 300 μl thymosin β4 in PBS, PBS alone or thymosin β4 and 100 nM wortmannin. Cultures were carried out for 3-9 days at 37° C. 5% CO2 and fixed in 4% paraformaldehyde in PBS for 10 min at room temperature. Cells were counted for quantification of migration and distance using at least three separate explants under each condition for endothelial migration and eight separate explants for myocardial migration.
as §1
To test the effects of secreted thymosin β4 on cardiac cell migration, the inventors used an embryonic heart explant system designed to assay cell migration and transformation on a collagen gel (Runyan and Markwald, 1983).
To determine whether activation of ILK was necessary for the observed effects of thymosin β4, the inventors used a well-described ILK inhibitor, wortmannin, which inhibits ILK's upstream kinase, phosphatidylinositol-3-OH kinase (PI(3)K) (Delcommenne et al., 1998). Using myocardial cell migration and beating frequency as assays for thymosin β4 activity, the inventors cultured embryonic heart explants as described above in the presence of thymosin β4 with or without wortmannin.

ILK = molecular target: T2, ILK (Homo sapiens, UniProt Q13418); assay: Co-immunoprecipitation of thymosin β4 with ILK; type: binding
T2 construct: expressed in transfected cells; host or cells: Cos and 10T1/2 cells
T2 sequence (Q13418 1-452): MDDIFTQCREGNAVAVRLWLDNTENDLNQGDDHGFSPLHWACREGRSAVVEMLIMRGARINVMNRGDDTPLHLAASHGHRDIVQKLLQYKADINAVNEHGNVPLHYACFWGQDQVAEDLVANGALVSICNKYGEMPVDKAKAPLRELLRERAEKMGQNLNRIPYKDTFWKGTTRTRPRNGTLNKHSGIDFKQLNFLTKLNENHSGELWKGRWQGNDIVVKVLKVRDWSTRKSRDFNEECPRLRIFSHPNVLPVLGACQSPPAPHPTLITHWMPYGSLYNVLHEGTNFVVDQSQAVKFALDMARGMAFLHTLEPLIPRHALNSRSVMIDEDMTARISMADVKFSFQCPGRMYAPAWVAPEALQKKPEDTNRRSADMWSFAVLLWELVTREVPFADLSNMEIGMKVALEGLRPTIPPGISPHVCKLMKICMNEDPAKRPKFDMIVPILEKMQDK
Protocol: as §3
Thymosin β4 activates ILK and Akt. To investigate the potential mechanisms through which thymosin β4 might be influencing cell migration and survival events, the inventors searched for thymosin β4 interacting proteins. The amino terminus of thymosin β4 was fused with affi-gel beads resulting in exposure of the C-terminus, which allowed identification of previously unknown interacting proteins but prohibited association with actin. The inventors synthesized and screened an E9.5-E12.5 mouse heart T7 phage complementary DNA library by phage display, and thymosin-β4-interacting clones were enriched and confirmed by enzyme-linked immunosorbent assay (ELISA, FIG. 3A). […] PINCH and ILK interact directly with one another and indirectly with the actin cytoskeleton as part of a larger complex involved in cell-extracellular matrix interactions known as the focal adhesion complex. […]

[6] = compared to control cells, data not shown

T1 sequence (Q99JW4 whole entry): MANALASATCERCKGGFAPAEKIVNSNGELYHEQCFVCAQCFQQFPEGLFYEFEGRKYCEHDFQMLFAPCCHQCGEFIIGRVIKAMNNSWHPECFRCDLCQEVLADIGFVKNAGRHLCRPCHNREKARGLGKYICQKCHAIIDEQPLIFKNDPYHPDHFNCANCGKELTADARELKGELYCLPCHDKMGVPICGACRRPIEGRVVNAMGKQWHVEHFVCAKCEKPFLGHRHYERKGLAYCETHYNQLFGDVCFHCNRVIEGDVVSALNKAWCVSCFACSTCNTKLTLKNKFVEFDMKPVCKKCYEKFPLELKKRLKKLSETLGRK

C3 transferase [reference compound]
effect on thymosin β4-induced ILK activation ([1]; COS1 or C2C12 cells, F-actin polymerization inhibited, data not shown): neither intervention affected the ILK activation

thymosin β4
cardiomyocyte proliferation or death ([2]; 3, 6, 11 or 14 days after coronary ligation, data not shown): did not detect significant | cell death by TUNEL assay in cardiomyocytes ([2]; 24 h after ligation): marked decrease | TUNEL-positive cells that were also myocytes ([2]; 24 h after ligation, abundant in control hearts): rare | ejection fraction ([2]; 3 days after infarction, intracardiac treatment, control 44.7±8.4%, P<0.02): 64.2±6.69% | left ventricle fractional shortening ([2]; 3 days after infarction, intracardiac treatment, n=4, 95% confidence interval, control 28.8±2.26%, P<0.02): 39.2±2.34% | cardiac dilation (end diastolic and end systolic dimensions) ([2]; after infarction, EDD and ESD significantly higher in control group): decreased cardiac dilation | mean ejection fraction ([2]; four weeks after coronary ligation, n=23, 95% confidence interval, control 28.2±2.5%, P<0.0001): 57.7±3.2% | mean left ventricular fractional shortening ([2]; four weeks after infarction, n=23, 95% confidence intervals, control 23.2±1.2%, P<0.0001): 37.2±1.8% | scar volume ([2]; six levels of sections through left ventricle, subset of mice, P<0.05): significant reduction | degree of functional improvement, intraperitoneal versus intracardiac administration ([2]; systemic i.p. 150 μg vs local 200 ng within the infarct): not statistically different | size of scar (trichrome stain) ([2]; three levels of section, all treated mice): reduced | number of c-kit, Sca-1 or Abcg2 positive cardiomyocytes ([2]; treated vs untreated hearts, data not shown): failed to detect any differences | size of scar, systemic versus local delivery ([2]; trichrome stain): not different | improvement in cardiac fractional shortening ([2]; versus control, four weeks): greater than 60% | improvement in ejection fraction ([2]; versus control, four weeks): > 100% | interaction with PINCH (phage display, ELISA) (PINCH; in the absence of actin, N-terminus fused to affi-gel beads): interacted | co-precipitation with PINCH (PINCH; transfected cultured cells): co-precipitated | level of ILK protein in heart lysates ([3]; compared with PBS-treated mice): increased | amount of phosphorylated Akt-S 473 in heart lysates ([3]; phospho-specific antibodies): elevation | time for which rhythmically contracting myocytes were visible ([4]; controls beat for up to 2 weeks): up to 28 days | survival of neonatal cardiomyocytes in primary culture ([4]; controls typically survive approximately 1 to 2 weeks): survived significantly longer | migrational distance of neonatal cardiomyocytes ([4]; laminin-coated glass, vs PBS control, P<0.05): significantly increased | rate of beating ([4]; versus 50 in control, P<0.02): 95 beats per minute | myocardial cell migration away from the explant ([5]; E11.5 outflow tract explants on collagen, 30 ng per 300 μl thymosin β4 vs PBS, P<0.0001): large number of spontaneously beating, cardiac muscle actin-positive cells that migrated away from the explant | cell death of migrating cells (TUNEL assay) [5, 6]: No significant difference | proliferative rate of migrating cells (phospho-histone H3 immunostaining) [5, 6]: No significant difference | strength of interaction of ILK with thymosin β4 in the common complex (ILK; immunoprecipitation of PINCH, ILK and thymosin β4): weaker than with PINCH | co-precipitation with ILK (ILK; transfected cultured cells): co-precipitated | ILK protein levels (western) ([1]; C2C12 cells): modest increase | total Akt protein ([1]; C2C12 cells): unchanged | phosphorylation of Akt at serine 473 ([1]; C2C12 cells, phospho-specific antibody): increased phosphorylation | ILK detection around the cell edges by immunocytochemistry ([1]; embryonic heart explants or C2C12 myoblasts, synthetic protein 10 ng per 100 μl or expressing plasmid): markedly enhanced
